# According to ChEMBL document CHEMBL5154820 (Eur J Med Chem, 2022):
# Tests used:
# [1] = Aqueous solubility of compound at pH 7.0 phosphate buffer incubated overnight by HPLC analysis analysis; type: physicochemical
# [2] = Antiproliferative activity against human SiHa/DDP cells assessed as reduction in cell growth measured after 48 to 72 hrs by CCK-8 assay; type: functional, cell-based, SiHa/cDDP
# [3] = Octanol-water partition coefficient, logP of the compound incubated overnight by HPLC analysis; type: physicochemical
# [4] = Antiproliferative activity against human HeLa/DDP cells assessed as reduction in cell growth measured after 48 to 72 hrs by CCK-8 assay; type: functional, cell-based
# [5] = Cytotoxicity against HK-2 cells assessed as reduction in cell growth measured after 24 hrs by microplate reader analysis; type: toxicity, cell-based; conditions: human
# SiHa [6] = test: Antiproliferative activity against human SiHa cells assessed as reduction in cell growth measured after 48 to 72 hrs by CCK-8 assay; type: functional, cell-based
# HeLa [7] = test: Antiproliferation activity against human HeLa cells assessed as reduction in cell growth measured after 48 to 72 hrs by CCK-8 assay; type: functional, cell-based
# HeLa [8] = test: Antimigratory activity against human HeLa cells at 6 nM measured after 24 hrs by scratch wound healing based fluorescence inverted microscopic analysis; type: functional
# HeLa [9] = test: Induction of cell cycle arrest in human HeLa cells assessed as < 2N cells at 6 nM measured after 24 hrs by propidium iodide staining based flow cytometric analysis analysis ( Rvb = 9.32%); type: functional
# SiHa [10] = test: Antiproliferation activity against human SiHa cells assessed as reduction in cell growth measured after 48 to 72 hrs by CCK-8 assay; type: functional, cell-based
# HeLa [11] = test: Induction of apoptosis in human HeLa cells assessed as early apoptotic cells at 1.5 nM measured after 24 hrs by Annexin V-FITC/7-AAD staining based flow cytometric analysis (reference value: 18.8%); type: functional
# [12] = Aqueous solubility of compound at pH 2.0 in phosphate buffer incubated overnight by HPLC analysis; type: physicochemical
# [13] = Aqueous solubility of compound at pH 7.4 in phosphate buffer incubated overnight by HPLC analysis; type: physicochemical
# HeLa [14] = test: Antiproliferative activity against human HeLa cells assessed as reduction in cell growth measured after 48 to 72 hrs by CCK-8 assay; type: functional, cell-based
# HeLa [15] = test: Induction of apoptosis in human HeLa cells assessed as necrotic cells at 1.5 nM measured after 24 hrs by Annexin V-FITC/7-AAD staining based flow cytometric analysis (reference value: 0.45%); type: functional
# [16] = Antiproliferation activity against human MS751 cells assessed as reduction in cell growth measured after 48 to 72 hrs by CCK-8 assay; type: functional, cell-based
# [17] = Acute toxicity against ICR mouse assessed as morphological changes in spleen at 1000 mg/kg, ip measured after 14 days by H and E staining method; type: organism-based; conditions: in vivo, 336 h, time 14 day
# Tubulin (Sus scrofa) = Tubulin (Sus scrofa) (UniProt P02554+P02550); test: Inhibition of pig brain tubulin polymerization at 12.5 uM by spectrophotometer analysis relative to control; design: scale not given: the % may be the effect or the level left; conditions: Sus scrofa domesticus
# HeLa [18] = test: Induction of cell cycle arrest in human HeLa cells assessed as accumulation of cells at G2/M phase at 0.2 uM after 24 hrs by propidium iodide staining based flow cytometric analysis (reference value: 20.3%); type: functional
# HeLa [19] = test: Induction of cell cycle arrest in human HeLa cells assessed as >4N cells at 0.4 uM measured after 24 hrs by propidium iodide staining based flow cytometric analysis analysis ( Rvb = 8.84%); type: functional
# HeLa [20] = test: Induction of apoptosis in human HeLa cells assessed as necrotic cells at 0.2 uM measured after 24 hrs by Annexin V-FITC/7-AAD staining based flow cytometric analysis (reference value: 0.56%); type: functional
# [21] = Nephrotoxicity in BABL/c mouse assessed as increased uric acid level at 30 mg/kg, ip administered daily for 21 days relative to vehicle; type: toxicity, organism-based; conditions: in vivo, 504 h, time 21 day
# [22] = Toxicity against BABL/c mouse assessed as morphological changes in lung at 30 to 60 mg/kg, ip administered daily for 21 days by H and E staining method; type: organism-based; conditions: in vivo, 504 h, dose 30-60 mg/kg, time 21 day
# HeLa [23] = test: Induction of cell cycle arrest in human HeLa cells assessed as accumulation of cells at G2/M phase at 0.4 uM after 24 hrs by propidium iodide staining based flow cytometric analysis (reference value: 20.3%); type: functional
# hERG (KCNH2) = hERG (KCNH2) (Homo sapiens, UniProt Q12809); test: Inhibition of human ERG expressed in CHO cells at 40 uM with holding potential of -80 mV by whole cell patch clamp assay relative to control; type: toxicity, cell-based; conditions: CHO cells that express hERG
# [24] = Acute toxicity against ICR mouse assessed as glycogen deposition in liver at 1000 mg/kg, ip measured after 14 days by H and E staining method; type: organism-based; conditions: in vivo, 336 h, time 14 day
# HeLa [25] = test: Potency index, ratio of cisplatin IC50 to test compound IC50 for cytotoxicity against human DDP resistant HeLa cells; type: functional
# HeLa [26] = test: Antitumor activity against human HeLa cells xenografted in BABL/c mouse assessed assessed as reduction in tumor volume at 60 mg/kg, ip administered daily for 21 days and measured every 3 day ( Rvb = 2336 mm3); type: functional; conditions: time 21 day
# [27] = Acute toxicity in ICR mouse assessed as median lethal dose administered intraperitoneally upto 14 days; conditions: in vivo, route ip, time < 14 day
# HeLa [28] = test: Induction of cell cycle arrest in human HeLa cells assessed as 2N cells at 0.2 uM measured after 24 hrs by propidium iodide staining based flow cytometric analysis analysis ( Rvb = 47.4%); type: functional
# HeLa [29] = test: Induction of apoptosis in human HeLa cells assessed as viable cells at 0.4 uM measured after 24 hrs by Annexin V-FITC/7-AAD staining based flow cytometric analysis (reference value: 70.1%); type: functional; conditions: read-out: Activity
# [30] = Nephrotoxicity in BABL/c mouse assessed as increased creatinine level at 60 mg/kg, ip administered daily for 21 days relative to vehicle; type: toxicity, organism-based; conditions: in vivo, 504 h, time 21 day
# HeLa [31] = test: Induction of apoptosis in human HeLa cells assessed as early apoptotic cells at 0.4 uM measured after 24 hrs by Annexin V-FITC/7-AAD staining based flow cytometric analysis (reference value: 20.8%); type: functional
# [32] = Toxicity against BABL/c mouse assessed as morphological changes in spleen at 30 mg/kg, ip administered daily for 21 days followed by addition of 3 mg/kg DDP for every 2 days by H and E staining method; type: organism-based; conditions: in vivo, 504 h, time 21 day
# [33] = Toxicity against BABL/c mouse assessed as morphological changes in liver at 30 mg/kg, ip administered daily for 21 days followed by addition of 3 mg/kg DDP for every 2 days by H and E staining method; type: organism-based; conditions: in vivo, 504 h, time 21 day
# [34] = Toxicity against BABL/c mouse assessed as morphological changes in kidney at 30 to 60 mg/kg, ip administered daily for 21 days by H and E staining method; type: organism-based; conditions: in vivo, 504 h, dose 30-60 mg/kg, time 21 day
# HeLa [35] = test: Induction of cell cycle arrest in human HeLa cells assessed as S-phase at 0.2 uM measured after 24 hrs by propidium iodide staining based flow cytometric analysis analysis ( Rvb = 15.5%); type: functional
# Sequence of hERG (KCNH2) (Q12809 whole entry): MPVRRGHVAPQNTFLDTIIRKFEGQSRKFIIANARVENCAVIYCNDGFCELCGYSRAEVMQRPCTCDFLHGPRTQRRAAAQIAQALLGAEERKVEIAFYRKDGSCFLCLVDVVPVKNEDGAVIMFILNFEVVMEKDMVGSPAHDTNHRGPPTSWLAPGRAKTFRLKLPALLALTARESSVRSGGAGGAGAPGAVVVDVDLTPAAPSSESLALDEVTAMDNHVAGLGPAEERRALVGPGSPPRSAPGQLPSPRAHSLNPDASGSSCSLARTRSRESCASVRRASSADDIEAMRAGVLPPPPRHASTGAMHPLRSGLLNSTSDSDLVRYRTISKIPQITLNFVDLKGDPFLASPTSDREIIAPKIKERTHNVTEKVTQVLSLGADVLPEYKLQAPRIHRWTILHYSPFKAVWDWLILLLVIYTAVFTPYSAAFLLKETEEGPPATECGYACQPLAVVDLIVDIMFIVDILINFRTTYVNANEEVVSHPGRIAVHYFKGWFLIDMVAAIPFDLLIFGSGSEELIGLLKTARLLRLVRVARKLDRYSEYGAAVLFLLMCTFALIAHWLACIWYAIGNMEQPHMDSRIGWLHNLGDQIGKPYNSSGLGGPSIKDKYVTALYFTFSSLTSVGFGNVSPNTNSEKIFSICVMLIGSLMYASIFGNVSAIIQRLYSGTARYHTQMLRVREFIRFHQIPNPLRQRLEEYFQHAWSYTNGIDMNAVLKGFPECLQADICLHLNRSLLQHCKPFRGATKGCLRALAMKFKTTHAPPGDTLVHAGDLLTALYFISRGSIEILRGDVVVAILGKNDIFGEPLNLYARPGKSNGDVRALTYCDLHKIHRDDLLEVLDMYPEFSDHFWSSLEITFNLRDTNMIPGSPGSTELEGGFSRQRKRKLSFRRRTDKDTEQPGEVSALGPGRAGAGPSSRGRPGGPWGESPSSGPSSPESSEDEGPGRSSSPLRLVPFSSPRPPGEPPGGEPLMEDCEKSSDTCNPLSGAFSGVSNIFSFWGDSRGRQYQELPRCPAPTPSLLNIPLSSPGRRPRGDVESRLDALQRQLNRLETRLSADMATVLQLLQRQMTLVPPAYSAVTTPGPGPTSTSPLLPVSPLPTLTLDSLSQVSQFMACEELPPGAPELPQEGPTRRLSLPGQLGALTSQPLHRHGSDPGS
# Sequence of Tubulin (Sus scrofa) (P02550 whole entry, looked up): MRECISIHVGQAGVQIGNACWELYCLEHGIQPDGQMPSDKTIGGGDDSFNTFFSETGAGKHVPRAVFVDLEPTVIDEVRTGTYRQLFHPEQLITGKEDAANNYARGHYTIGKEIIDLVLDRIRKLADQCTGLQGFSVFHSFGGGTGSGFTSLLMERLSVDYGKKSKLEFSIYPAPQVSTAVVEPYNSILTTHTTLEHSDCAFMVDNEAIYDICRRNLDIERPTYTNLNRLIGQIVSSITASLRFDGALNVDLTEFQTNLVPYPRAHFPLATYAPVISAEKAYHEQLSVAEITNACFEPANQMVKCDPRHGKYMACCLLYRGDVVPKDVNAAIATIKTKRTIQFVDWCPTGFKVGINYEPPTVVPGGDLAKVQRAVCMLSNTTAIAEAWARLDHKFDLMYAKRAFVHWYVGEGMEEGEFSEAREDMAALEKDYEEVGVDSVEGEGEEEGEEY
# Sequence of Tubulin (Sus scrofa) (P02554 whole entry, looked up): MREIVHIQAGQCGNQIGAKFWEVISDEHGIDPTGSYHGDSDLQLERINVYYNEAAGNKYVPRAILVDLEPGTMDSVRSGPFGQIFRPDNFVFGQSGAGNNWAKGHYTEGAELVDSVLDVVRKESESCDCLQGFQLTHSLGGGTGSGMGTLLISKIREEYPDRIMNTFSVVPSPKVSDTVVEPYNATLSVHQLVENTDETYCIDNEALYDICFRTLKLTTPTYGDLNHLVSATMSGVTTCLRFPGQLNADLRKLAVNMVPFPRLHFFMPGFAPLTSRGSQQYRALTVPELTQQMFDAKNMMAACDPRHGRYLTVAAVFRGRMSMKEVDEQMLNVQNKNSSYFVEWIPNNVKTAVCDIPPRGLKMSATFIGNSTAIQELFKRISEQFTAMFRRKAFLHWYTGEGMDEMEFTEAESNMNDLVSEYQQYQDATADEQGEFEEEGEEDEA
smiles,measurement,setting,value
COc1ccc(/C=C\c2cc(OC)c(OC)c(OC)c2)cc1O [COMBRETASTATIN A4],solubility,[1],9.85 µg/mL
same,IC50,[2],14400 nM
same,logP,[3],2.04
same,IC50,[4],10300 nM
same,IC50 at 24 h,[5],116000 nM
same,IC50,SiHa [6],29 nM
same,IC50,HeLa [7],4.2 nM
same,Activity,HeLa [8],73%
same,Activity,HeLa [9],16.5%
same,IC50,SiHa [10],29 nM
same,Activity,HeLa [11],23.5%
same,solubility,[12],3.23 µg/mL
same,solubility,[13],4.34 µg/mL
same,IC50,HeLa [14],4.2 nM
same,Activity,HeLa [15],0.91%
same,IC50,[16],8 nM
CCOc1ccc(-c2cncnc2-c2cc(OC)c(OC)c(OC)c2)cc1Cl,solubility,[1],8.12 µg/mL
same,Activity,[17],Non-Toxic
same,IC50,[2],6280 nM
same,Activity,Tubulin (Sus scrofa),77%
same,Activity,HeLa [18],47.6%
same,logP,[3],2.36
same,IC50,[4],7210 nM
same,IC50 at 24 h,[5],188000 nM
same,IC50,SiHa [6],150 nM
same,IC50,HeLa [7],90 nM
same,Activity,HeLa [19],1.58%
same,Activity,HeLa [20],0.52%
same,Activity,[21],21%
same,Activity,[22],Non-Toxic
same,Activity,HeLa [23],71.7%
same,inhibition at 40 µM,hERG (KCNH2),65%
same,Activity,[24],Non-Toxic
same,IC50,SiHa [10],150 nM
same,Ratio IC50,HeLa [25],2.7
same,Activity,HeLa [26],1083 mm3
same,LD50 at 336 h,[27],1000 mg/kg
same,Activity,HeLa [28],0.82%
same,viability at 0.4 µM,HeLa [29],11.5%
same,Activity,[30],23%
same,solubility,[12],31.7 µg/mL
same,Activity,HeLa [31],84.4%
same,Activity,[32],Non-Toxic
same,solubility,[13],17.1 µg/mL
same,Activity,[33],Non-Toxic
same,IC50,HeLa [14],90 nM
same,IC50,[16],110 nM
same,Activity,[34],Non-Toxic
same,Activity,HeLa [35],16.6%
